# Test results reported in patent US8952024B2, “Herbicidal pyrimidone derivatives” (E I du Pont de Nemours and Company, priority 2009, dated 2015).
# Columns and labels:
# Assay in all cases: Test B pre-/postemergence plant response
# Type in all cases: in vivo
# [1] = tested on: Italian ryegrass (Lolium multiflorum)
# Outline: (§1)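 Visually scored on a 0 to 100 scale after 13 to 15 days in greenhouse versus controls. Treatments were preemergence on seeded loam/sand soil and postemergence on 1- to 4-leaf plants.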
# [2] = tested on: blackgrass (Alopecurus myosuroides)
# Outline: as §1
# [3] = tested on: cocklebur (Xanthium strumarium)
# Outline: as §1
# [4] = tested on: corn (Zea mays)
# Outline: as §1
# [5] = tested on: giant foxtail (Setaria faberii)
# Outline: as §1
# [6] = tested on: goosegrass (Eleusine indica)
# Outline: as §1
# [7] = tested on: green foxtail (Setaria viridis)
# Outline: as §1
# [8] = tested on: johnsongrass (Sorghum halepense)
# Outline: as §1
# [9] = tested on: kochia (Kochia scoparia); details: Postemergence; for Plant response rating, Kochia: scale 0 (no effect) to 100 (complete control); for Kochia plant response rating: 250 g ai/ha, scale 0 to 100
# Outline: as §1
# [10] = tested on: large crabgrass (Digitaria sanguinalis)
# Outline: as §1
# [11] = tested on: morningglory (Ipomoea coccinea)
# Outline: as §1
# [12] = tested on: ragweed (common ragweed, Ambrosia elatior)
# Outline: as §1
# [13] = tested on: soybean (Glycine max)
# Outline: as §1
# [14] = tested on: velvetleaf (Abutilon theophrasti)
# Outline: as §1
# [15] = 250 g ai/ha, Preemergence, 0 to 100 scale
# [16] = Postemergence, 62 g ai/ha, scale 0 (no effect) to 100 (complete control), 13 to 15 days
# [17] = Postemergence, 125 g ai/ha, visual rating after 13 to 15 days, scale 0 (no effect) to 100 (complete control)
# [18] = Preemergence, 31 g ai/ha, scale 0 to 100 (0 no effect, 100 complete control)
# [19] = Preemergence, 125 g ai/ha, 0 to 100 scale
# [20] = Postemergence, 31 g ai/ha, scale 0 to 100 (0 no effect, 100 complete control)
# [21] = Postemergence, 250 g ai/ha, scale 0 to 100
# [22] = Preemergence, 62 g ai/ha, scale 0 to 100 (0 no effect, 100 complete control)
# [23] = 125 g ai/ha, visual rating after 13 to 15 days
structure (smiles),measurement,setting,value
Cc1ccc(F)cc1-n1c(-c2ccccc2)ncc(C(=O)C2=C(O)CCCC2=O)c1=O [Compound 44],"Plant response rating, Ryegrass, Italian",[1]; [15],0
same,"Plant response rating, Ryegrass, Italian",[1]; [16],5
same,"Plant response rating, Ryegrass, Italian",[1]; [17],10
same,"Plant response rating, Ryegrass, Italian",[1]; [18],0
same,"Ryegrass, Italian plant response rating",[1]; [19],0
same,"Plant response rating, Blackgrass",[2]; [15],60
same,"Plant response rating, Blackgrass",[2]; [20],0
same,"Plant response rating, Blackgrass",[2]; [16],10
same,"Plant response rating, Blackgrass",[2]; [17],30
same,Blackgrass plant response rating,[2]; [21],30
same,"Plant response rating, Blackgrass",[2]; [18],5
same,"Plant response rating, Blackgrass",[2]; [22],30
same,Blackgrass plant response rating,[2]; [19],40
same,"Plant response rating, Cocklebur",[3]; [15],45
same,"Plant response rating, Cocklebur",[3]; [20],80
same,"Plant response rating, Cocklebur",[3]; [16],80
same,"Plant response rating, Cocklebur",[3]; [17],90
same,Cocklebur plant response rating,[3]; [21],98
same,"Plant response rating, Corn",[4]; [15],0
same,"Plant response rating, Corn",[4]; [20],75
same,"Plant response rating, Corn",[4]; [16],80
same,"Plant response rating, Corn",[4]; [17],80
same,Corn plant response rating,[4]; [21],85
same,"Plant response rating, Corn",[4]; [18],0
same,"Plant response rating, Corn",[4]; [22],0
same,Corn plant response rating,[4]; [19],0
same,"Plant response rating, Foxtail, Giant",[5]; [15],98
same,"Plant response rating, Foxtail, Giant",[5]; [20],95
same,"Plant response rating, Foxtail, Giant",[5]; [16],95
same,"Plant response rating, Foxtail, Giant",[5]; [17],95
same,"Foxtail, Giant plant response rating",[5]; [21],98
same,"Plant response rating, Foxtail, Giant",[5]; [18],20
same,"Plant response rating, Foxtail, Giant",[5]; [22],45
same,"Foxtail, Giant plant response rating",[5]; [19],75
same,"Plant response rating, Goosegrass",[6]; [15],100
same,"Plant response rating, Goosegrass",[6]; [16],90
same,"Plant response rating, Goosegrass",[6]; [17],90
same,Goosegrass plant response rating,[6]; [21],95
same,"Plant response rating, Goosegrass",[6]; [18],90
same,Goosegrass plant response rating,[6]; [19],100
same,"Plant response rating, Foxtail, Green",[7]; [15],100
same,"Plant response rating, Foxtail, Green",[7]; [20],90
same,"Plant response rating, Foxtail, Green",[7]; [16],90
same,"Plant response rating, Foxtail, Green",[7]; [17],90
same,"Foxtail, Green plant response rating",[7]; [21],90
same,"Plant response rating, Foxtail, Green",[7]; [18],0
same,"Plant response rating, Foxtail, Green",[7]; [22],98
same,"Foxtail, Green plant response rating",[7]; [19],98
same,"Plant response rating, Johnsongrass",[8]; [15],95
same,"Plant response rating, Johnsongrass",[8]; [16],70
same,"Plant response rating, Johnsongrass",[8]; [17],90
same,Johnsongrass plant response rating,[8]; [21],95
same,"Plant response rating, Johnsongrass",[8]; [18],10
same,"Plant response rating, Johnsongrass",[8]; [22],75
same,Johnsongrass plant response rating,[8]; [19],90
same,"Plant response rating, Kochia","[9]; 62 g ai/ha, 13 to 15 days",75
same,"Plant response rating, Kochia",[9]; [23],75
same,Kochia plant response rating,[9],95
same,"Plant response rating, Crabgrass, Large",[10]; [15],100
same,"Plant response rating, Crabgrass, Large",[10]; [20],85
same,"Plant response rating, Crabgrass, Large",[10]; [16],90
same,"Plant response rating, Crabgrass, Large",[10]; [17],95
same,"Crabgrass, Large plant response rating",[10]; [21],98
same,"Plant response rating, Crabgrass, Large",[10]; [18],65
same,"Plant response rating, Crabgrass, Large",[10]; [22],75
same,"Crabgrass, Large plant response rating",[10]; [19],100
same,"Plant response rating, Morningglory",[11]; [15],95
same,"Plant response rating, Morningglory",[11]; [16],70
same,"Plant response rating, Morningglory",[11]; [17],75
same,"Plant response rating, Morningglory",[11]; [18],0
same,"Plant response rating, Morningglory",[11]; [22],0
same,Morningglory plant response rating,[11]; [19],50
same,"Plant response rating, Ragweed",[12]; [15],95
same,"Plant response rating, Ragweed",[12]; [16],95
same,"Plant response rating, Ragweed",[12]; [17],95
same,"Plant response rating, Ragweed",[12]; [18],20
same,Ragweed plant response rating,[12]; [19],95
same,"Plant response rating, Soybean",[13]; [15],0
same,"Plant response rating, Soybean",[13]; [16],95
same,"Plant response rating, Soybean",[13]; [17],95
same,"Plant response rating, Soybean",[13]; [18],0
same,Soybean plant response rating,[13]; [19],0
same,"Plant response rating, Velvetleaf",[14]; [15],100
same,"Plant response rating, Velvetleaf",[14]; [16],98
same,"Plant response rating, Velvetleaf",[14]; [17],100
same,"Plant response rating, Velvetleaf",[14]; [18],75
same,Velvetleaf plant response rating,[14]; [19],100
Cc1cccc(Cl)c1-n1c(-c2ccccc2)ncc(C(=O)C2=C(O)CCCC2=O)c1=O [Compound 46],"Plant response rating, Ryegrass, Italian",[1]; [15],0
same,"Plant response rating, Ryegrass, Italian",[1]; [16],5
same,"Plant response rating, Ryegrass, Italian",[1]; [17],5
same,"Plant response rating, Ryegrass, Italian",[1]; [18],0
same,"Ryegrass, Italian plant response rating",[1]; [19],0
same,"Plant response rating, Blackgrass",[2]; [15],0
same,"Plant response rating, Blackgrass",[2]; [20],0
same,"Plant response rating, Blackgrass",[2]; [16],5
same,"Plant response rating, Blackgrass",[2]; [17],10
same,Blackgrass plant response rating,[2]; [21],10
same,"Plant response rating, Blackgrass",[2]; [18],0
same,"Plant response rating, Blackgrass",[2]; [22],0
same,Blackgrass plant response rating,[2]; [19],0
same,"Plant response rating, Cocklebur",[3]; [15],15
same,"Plant response rating, Cocklebur",[3]; [20],75
same,"Plant response rating, Cocklebur",[3]; [16],80
same,"Plant response rating, Cocklebur",[3]; [17],80
same,Cocklebur plant response rating,[3]; [21],90
same,"Plant response rating, Cocklebur",[3]; [18],0
same,"Plant response rating, Cocklebur",[3]; [22],0
same,Cocklebur plant response rating,[3]; [19],0
same,"Plant response rating, Corn",[4]; [15],0
same,"Plant response rating, Corn",[4]; [20],20
same,"Plant response rating, Corn",[4]; [16],35
same,"Plant response rating, Corn",[4]; [17],60
same,Corn plant response rating,[4]; [21],75
same,"Plant response rating, Corn",[4]; [18],0
same,"Plant response rating, Corn",[4]; [22],0
same,Corn plant response rating,[4]; [19],0
same,"Plant response rating, Foxtail, Giant",[5]; [15],25
same,"Plant response rating, Foxtail, Giant",[5]; [20],70
same,"Plant response rating, Foxtail, Giant",[5]; [16],80
same,"Plant response rating, Foxtail, Giant",[5]; [17],80
same,"Foxtail, Giant plant response rating",[5]; [21],85
same,"Plant response rating, Foxtail, Giant",[5]; [18],0
same,"Plant response rating, Foxtail, Giant",[5]; [22],0
same,"Foxtail, Giant plant response rating",[5]; [19],15
same,"Plant response rating, Goosegrass",[6]; [15],98
same,"Plant response rating, Goosegrass",[6]; [16],75
same,"Plant response rating, Goosegrass",[6]; [17],80
same,Goosegrass plant response rating,[6]; [21],80
same,"Plant response rating, Goosegrass",[6]; [18],85
same,Goosegrass plant response rating,[6]; [19],98
same,"Plant response rating, Foxtail, Green",[7]; [15],10
same,"Plant response rating, Foxtail, Green",[7]; [20],45
same,"Plant response rating, Foxtail, Green",[7]; [16],60
same,"Plant response rating, Foxtail, Green",[7]; [17],85
same,"Foxtail, Green plant response rating",[7]; [21],85
same,"Plant response rating, Foxtail, Green",[7]; [18],0
same,"Plant response rating, Foxtail, Green",[7]; [22],0
same,"Foxtail, Green plant response rating",[7]; [19],5
same,"Plant response rating, Johnsongrass",[8]; [15],70
same,"Plant response rating, Johnsongrass",[8]; [16],50
same,"Plant response rating, Johnsongrass",[8]; [17],70
same,Johnsongrass plant response rating,[8]; [21],75
same,"Plant response rating, Johnsongrass",[8]; [18],0
same,"Plant response rating, Johnsongrass",[8]; [22],10
same,Johnsongrass plant response rating,[8]; [19],45
same,"Plant response rating, Kochia","[9]; 62 g ai/ha, 13 to 15 days",0
same,"Plant response rating, Kochia",[9]; [23],20
same,Kochia plant response rating,[9],30
same,"Plant response rating, Crabgrass, Large",[10]; [15],98
same,"Plant response rating, Crabgrass, Large",[10]; [20],60
same,"Plant response rating, Crabgrass, Large",[10]; [16],65
same,"Plant response rating, Crabgrass, Large",[10]; [17],75
same,"Crabgrass, Large plant response rating",[10]; [21],75
same,"Plant response rating, Crabgrass, Large",[10]; [18],45
same,"Plant response rating, Crabgrass, Large",[10]; [22],75
same,"Crabgrass, Large plant response rating",[10]; [19],85
same,"Plant response rating, Morningglory",[11]; [15],0
same,"Plant response rating, Morningglory",[11]; [16],30
same,"Plant response rating, Morningglory",[11]; [17],45
same,"Plant response rating, Morningglory",[11]; [18],0
same,"Plant response rating, Morningglory",[11]; [22],0
same,Morningglory plant response rating,[11]; [19],0
same,"Plant response rating, Ragweed",[12]; [15],100
same,"Plant response rating, Ragweed",[12]; [16],75
same,"Plant response rating, Ragweed",[12]; [17],80
same,"Plant response rating, Ragweed",[12]; [18],100
same,Ragweed plant response rating,[12]; [19],100
same,"Plant response rating, Soybean",[13]; [15],25
same,"Plant response rating, Soybean",[13]; [16],80
same,"Plant response rating, Soybean",[13]; [17],90
same,"Plant response rating, Soybean",[13]; [18],0
same,Soybean plant response rating,[13]; [19],15
same,"Plant response rating, Velvetleaf",[14]; [15],65
same,"Plant response rating, Velvetleaf",[14]; [16],80
same,"Plant response rating, Velvetleaf",[14]; [17],85
same,"Plant response rating, Velvetleaf",[14]; [18],0
same,Velvetleaf plant response rating,[14]; [19],55
